For assay [1], the system named is H23. Kind of assay: Dose response study (Alamar Blue), H23. The class given is cell-based. The note with it: Homo sapiens, read-out: IC50 H23. The procedure: (§1) Dose response studies against 34 compounds from the pyridazinone and phenylfuran-carboxamide class were conducted. […] In addition, Tarceva was included in these dose response studies.
(§2) The dose response studies were done with the following standard procedure. First, the cells were counted and dispensed at 250 cells/well into 384-well microplates with compound. The cells were incubated for 48 hours at 37 C to complete treatment, and then alamar blue was added for an additional 48 hours. Finally, alamar blue reduction was measured and the data was loaded into ORIS, our data screening acquisition platform.

For assay [2], the system named is HPL1D (human peripheral lung epithelial) cell line. Kind of assay: Cell proliferation / dose response (Alamar Blue), HPL1D. The class given is cell-based. Particulars: read-out: IC50 HPL1D. On the procedure:
WI-38: human lung fibroblast cell line. […] WT: wildtype; WT*: over-expressed wildtype. Dose response studies against 34 compounds from the pyridazinone and phenylfuran-carboxamide class were conducted. […] In addition, Tarceva was included in these dose response studies. The dose response studies were done with the following standard procedure. […] The cells were incubated for 48 hours at 37 C to complete treatment, and then alamar blue was added for an additional 48 hours. Finally, alamar blue reduction was measured and the data was loaded into ORIS, our data screening acquisition platform.

For assay [3], the system named is PC9. The assay can be described thus: Dose response study (Alamar Blue), PC9. In kind it is cell-based. The note with it: Homo sapiens, read-out: IC50 PC9. On the procedure:
as §1, §2

For assay [4], the system named is H2030. Kind of assay: Non Small Cell Lung Cancer proliferation assay (Alamar Blue reduction), H2030. In kind it is cell-based, human. Particulars: Homo sapiens. In a few lines:
(§3)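 Viability after 48 hours of drug exposure at 37° C is scored by Alamar Blue reduction over a subsequent 48 hours, read at 530/590 nm. DMSO-only wells (1% final) define the high control.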

Assay [5] concerns H1650. Kind of assay: Non Small Cell Lung Cancer proliferation assay (Alamar Blue reduction), H1650. Particulars: Homo sapiens. In kind it is cell-based, human. In a few lines: as §3
Assay [6] deals with A549. Kind of assay: Dose response study (Alamar Blue), A549. In kind it is cell-based. Particulars: Homo sapiens, read-out: IC50 A549. The procedure:
as §1, §2

Assay [7] relates to H460. Kind of assay: Dose response study (Alamar Blue), H460. The note with it: Homo sapiens, read-out: IC50 H460. In kind it is cell-based. On the procedure:
as §1, §2

In assay [8] the test system is H820. The assay can be described thus: Dose response study (Alamar Blue), H820. The class given is cell-based. The note with it: Homo sapiens, read-out: IC50 H820. The procedure:
as §1, §2

In assay [9] the test system is H2444. Kind of assay: Dose response study (Alamar Blue), H2444. The class given is cell-based. Particulars: Homo sapiens, read-out: IC50 H2444. The procedure:
as §1, §2

Assay [10] deals with H3255. The assay can be described thus: Non Small Cell Lung Cancer proliferation assay (Alamar Blue reduction), H3255. In kind it is cell-based, human. The gist of the method:
as §3

[11] abbreviates: NCI-H23, H23, 12 point doubling dilution 10 uM to 5 nM, 48 h treatment, alamar blue additional 48 h.
Where [12] appears, read: HPL1D, 12 point doubling dilution 10 uM to 5 nM, 48 h treatment, alamar blue additional 48 h.
[13] abbreviates: PC-9, PC9, 12 point doubling dilution 10 uM to 5 nM, 48 h treatment, alamar blue additional 48 h.
Setting [14] is: NCI-H2030, 48 h, H2030, 12 point doubling dilution 10 uM to 5 nM, 48 h treatment, alamar blue additional 48 h, read-out: IC50 H2030.
Setting [15] is: NCI-H2030, dose response 10 M to 5 nM, IC50, read-out: Dose Response (uM) H2030.
Setting [16] is: NCI-H1650, 48 h, H1650, 12 point doubling dilution 10 uM to 5 nM, 48 h treatment, alamar blue additional 48 h, read-out: IC50 H1650.
The mark [17] stands for this setting: NCI-H1650, dose response 10 M to 5 nM, IC50, read-out: Dose Response (uM) H1650.
Where [18] appears, read: A549, 12 point doubling dilution 10 uM to 5 nM, 48 h treatment, alamar blue additional 48 h.
Setting [19] is: NCI-H460, H460, 12 point doubling dilution 10 uM to 5 nM, 48 h treatment, alamar blue additional 48 h.
The mark [20] stands for this setting: NCI-H820, H820, 12 point doubling dilution 10 uM to 5 nM, 48 h treatment, alamar blue additional 48 h.
Setting [21] is: NCI-H2444, H2444, 12 point doubling dilution 10 uM to 5 nM, 48 h treatment, alamar blue additional 48 h.
Where [22] appears, read: Homo sapiens, NCI-H3255, 48 h, H3255, 12 point doubling dilution 10 uM to 5 nM, 48 h treatment, alamar blue additional 48 h, read-out: IC50 H3255.
The mark [23] stands for this setting: Homo sapiens, NCI-H3255, dose response 10 M to 5 nM, IC50, read-out: Dose Response (uM) H3255.

Read-outs that look alike come from different tables or passages of the source. A value given as a limit tells only on which side of the number the result lay.

For the compound `COc1nn(-c2cccc(C)c2)c(=O)c(Cl)c1Cl` [compound 257028], the IC50 in [1] (setting [11]) is 0.68 µM; in assay [2] (setting [12]), 1.93 µM; in assay [3] (setting [13]), 2.4 µM; in assay [4] (setting [14]) it was 1.79 µM; in [4] (setting [15]) it was 1.26 µM; in assay [5] (setting [16]) it was 3.04 µM. The IC50 came to 2.04 µM in assay [5] (setting [17]); 3.76 µM in assay [6] (setting [18]); 5.23 µM in assay [7] (setting [19]); 0.77 µM in [8] (setting [20]); 1.17 µM in assay [9] (setting [21]); 2.38 µM in assay [10] (setting [22]). Moreover, the IC50 in [10] (setting [23]) came to 1.76 µM.
With `Cc1cc(C)cc(-n2ncc(Cl)c(Cl)c2=O)c1` [compound 257020], the IC50 in assay [1] (setting [11]) turned out to be 0.46 µM; in [2] (setting [12]), 0.41 µM; in assay [3] (setting [13]) it was 1.55 µM; in assay [4] (setting [14]) it was 0.57 µM; in assay [4] (setting [15]), 0.56 µM; in assay [5] (setting [16]), 2.58 µM. Further, the IC50 in [5] (setting [17]) came to 2.1 µM; in assay [6] (setting [18]), 2.87 µM; in [7] (setting [19]) it was 2.93 µM; in assay [8] (setting [20]), 0.45 µM; in [9] (setting [21]), 0.4 µM; in [10] (setting [22]), 1.35 µM. The IC50 in assay [10] (setting [23]) came to 0.92 µM.
On to `Cc1cc(-n2ncc(Cl)c(Cl)c2=O)ccc1Br` [compound 267064], for which the IC50 in assay [1] (setting [11]) is 5.75 µM; in assay [2] (setting [12]), 4.72 µM; in [3] (setting [13]), > 10 µM; in assay [4] (setting [14]), 7.8 µM; in assay [4] (setting [15]), 0.88 µM; in [5] (setting [16]), > 10 µM. The IC50 in assay [5] (setting [17]) was 2.83 µM; in assay [6] (setting [18]) it was > 10 µM; in assay [7] (setting [19]) it was > 10 µM; in assay [8] (setting [20]) it was 6.72 µM; in [9] (setting [21]), 6.41 µM; in [10] (setting [22]), > 10 µM. Also, the IC50 in assay [10] (setting [23]) came to 2.47 µM.
As for `Cc1cccc(-n2ncc(Br)c(Br)c2=O)c1` [compound 267071], the IC50 was 0.26 µM in [1] (setting [11]); 0.24 µM in [2] (setting [12]); 0.86 µM in [3] (setting [13]); 0.37 µM in assay [4] (setting [14]); 1.22 µM in assay [4] (setting [15]); 1.1 µM in assay [5] (setting [16]). Moreover, the IC50 amounted to 0.74 µM in assay [5] (setting [17]); 1.62 µM in assay [6] (setting [18]); 1.43 µM in [7] (setting [19]); 0.27 µM in [8] (setting [20]); 0.31 µM in assay [9] (setting [21]); 0.76 µM in assay [10] (setting [22]). Further, the IC50 in [10] (setting [23]) is 0.81 µM.
For the compound `Cc1cccc(-n2ncc(Cl)c(Cl)c2=O)c1` [compound 104122, 4,5-dichloro-2-m-tolyl-2H-pyridazin-3-one], the IC50 in assay [1] (NCI-H23, 48 h) was 0.21 µM; in assay [2] (48 h), 0.28 µM; in assay [3] (PC-9, 48 h), 0.65 µM; in [4] (setting [14]), 0.29 µM; in [5] (setting [16]) it was 1.41 µM; in [6] (A549, 48 h) it was 1.45 µM. Besides, the IC50 in [7] (NCI-H460, 48 h) stood at 1.56 µM; in assay [8] (NCI-H820, 48 h), 0.18 µM; in assay [9] (NCI-H2444, 48 h) it was 0.24 µM; in assay [10] (setting [22]), 0.87 µM; in assay [10] (dose response 10 M to 5 nM, IC50, read-out: Dose Response (uM) H3255), 0.38 µM. In addition, the inhibition at 10 µM was determined as 101% in assay [4] (NCI-H2030, primary screening, 10 μM compound in 1% DMSO (v/v), read-out: percentage inhibition H2030); 48% in assay [5] (NCI-H1650, primary screening, 10 μM compound in 1% DMSO (v/v), read-out: percentage inhibition H1650); 98% in [10] (Homo sapiens, NCI-H3255, primary screening, 10 μM compound in 1% DMSO (v/v), read-out: percentage inhibition H3255).
